Consider one substance from US20210000879A1, “METHODS AND COMPOSITIONS FOR MRNA-BASED MODULATION AND DETECTION OF CELL PHENOTYPES” (Georgia Tech Research Corporation, priority 2018, published 2021).

In data set [1] the test system is rat model of complete heart block. In words: Effect of TGF-beta small molecule inhibitor on ventricular pacing with TBX18 mRNA. It counts as in vivo. The following applies: A83-01 released by osmotic pump. As to the method:
On Day 0, an osmotic pump releasing A83-01 (a TGF-beta inhibitor, Sigma Aldrich) was implanted into the rats. On Day 1, TBX18 mRNA was injected into the rats and a telemetry device was also implanted. Two doses of TBX18 mRNA were given to the rats: (i) a low dose of 100 μg TBX18 mRNA with 68.4 μl RNA-free phosphate-buffered saline (PBS), or (ii) a high dose of 300 μg TBX18 mRNA with 205 μl RNA-free PBS. A continuous telemetry recording of each rat's electrocardiogram (ECG) was made for 21 days after implantation of the telemetry device. In addition, 3-lead surface ECGs were performed on anesthetized animals on Days 7, 14, and 21 along with an isoproterenol challenge. The heart was harvested from each animal on Day 21.
The inventors then determined the effects of including a TGF-beta small molecule inhibitor on ventricular pacing with TBX18 mRNA (FIG. 16).

For data set [2], the system named is complete atrioventricular block (CAVB) model in rats. Put plainly: 3-lead surface ECG in rat complete atrioventricular block model. It counts as in vivo. As to the method:
(§1) The inventors next studied the effects of administering TBX18 mRNA to a rat model of a complete atrioventricular block. […] In this study, the inventors created a complete atrioventricular block (CAVB) model in rats and monitored the rats for one week to confirm stable and persistent CAVB. Next, TBX18 mRNA was injected into the ventricular apex of each rat and a telemetry device was implanted. Some rats received a high dose of TBX18 mRNA, which was 300 μg TBX mRNA with 205 μl RNA free PBS. The inventors continuously monitored and recorded data from the telemetry device including electrocardiograms for 21 days. The inventors performed 3-lead surface ECGs on anesthetized animals on days 7, 14 and 21 with an isoproterenol challenge, and harvested the heart on day 21.
The inventors determined if there was antegrade conduction (meaning that the direction of cardiac conduction occurred from the SA node, AV node and down toward the apex of the heart) or retrograde conduction (meaning that the direction of cardiac conduction occurred from the site of TBX18 delivery which was the apex of the left ventricle). In order to determine this, the inventors determined a baseline ECG under anesthesia before TBX18 mRNA injection by recording three-lead surface ECGs for ten minutes while the rat was asleep under anesthesia. Recordings confirmed the presence of AV conduction block with multiple P waves between each QRS complex, inconsistent P-R intervals, and a relatively low heart rate of 100 bpm, compared to a healthy rate of over 300 bpm for rats.

Data set [3] has as its system porcine model of complete heart block. In words: Porcine model of complete heart block. It is filed as in vivo, pig. The text has this:
The inventors next sought to test the TBX18 mRNA in a large animal model, specifically a porcine model, of complete heart block. The inventors used a control of GFP mRNA+A83-01. On Day 1, the inventors created an intracardiac map by implanting a pacemaker and administered the TBX18 mRNA or control. Weeks 2, 4, and 6 after administration included an interrogation of the pacemaker and an isoproterenol challenge to measure the animals' maximum heart rate (max HR). In Week 6, arrythmia testing and intracardiac mapping were performed and vital organs were harvested. […] The proper diurnal response in TBX18-injected pig is in line with the average heart rate data from FIG. 18.

Data set [4] relates to neonatal rat ventricular cardiomyocytes. Put plainly: TBX18 IVT mRNA entry by qPCR normalized to GAPDH. It counts as cell-based. The following applies: 333 ng mRNA with ViroMer Red, 96-well plate. How it is done: Freshly-isolated neonatal rat ventricular cardiomyocytes were transfected with IVT mRNA for human TBX18 gene. Somatic gene transfer was performed by adding 333 ng of TBX18 IVT mRNA with a transfection reagent, ViroMer Red, to a well in a 96-well plate seeded with the neonatal rat ventricular cardiomyocytes. TBX18 IVT mRNA that successfully entered the cardiomyocytes were quantitated by quantitative real-time PCR (qPCR), and the TBX18 mRNA level was normalized to an endogenous housekeeping gene, GAPDH, over time.
Background: In qPCR the cycle at which signal appears reflects the starting amount.

The test system is the same in data set [5]. Put plainly: Nuclear localization of TBX18 (FLAG) by immunostaining. It counts as cell-based. The following applies: 24 hrs post-transfection. The source says:
TBX18 is a transcription factor, and thus should be targeted to the nuclei upon proper translation from mRNA. Freshly-isolated neonatal rat ventricular cardiomyocytes were transfected with IVT mRNA for human TBX18 gene. TBX18 mRNA was designed with a tag peptide (DYKDDDDK (SEQ ID NO:9, also known as a “FLAG” epitope) fused to the C-terminal end of TBX18 for subcellular identification of TBX18 with an antibody against FLAG. Sarcomeric alpha-actinin (α-SA) and DAPI label cardiomyocytes and all nuclei, respectively. Arrows (co-localization of FLAG and DAPI) indicate nuclear localization of TBX18 protein. Three transfection conditions were tested in a 24-well plate, and immunostaining was performed at 24 hrs post-transfection.

Data set [6] has the same test system. In words: TBX18 protein expression by immunoblot normalized to GAPDH. It counts as cell-based. Particulars: 333 ng mRNA with ViroMer Red, 96-well plate. How it is done:
Freshly-isolated neonatal rat ventricular cardiomyocytes were transfected with IVT mRNA for human TBX18 gene. Somatic gene transfer was performed by adding 333 ng of TBX18 IVT mRNA with a transfection reagent, ViroMer Red, to a well in a 96-well plate seeded with the neonatal rat ventricular cardiomyocytes. TBX18 protein expression from the transfected IVT mRNA in the cardiomyocytes were quantitated by specific antibodies to TBX18 on immunoblots and normalized to an endogenous housekeeping protein, GAPDH. […] The TBX18 protein expression was also transient, in line with the expression kinetics of the delivered mRNA. This transient expression of TBX18 closely mimicked its native expression during embryonic development, and is ideal for the intended purpose as a reprogramming agent to convert ordinary heart muscle cells to specialized cardiac pacemaker cells. In FIG. 12, D denotes days after transfection, and each time point consists of two technical replicates.
(Immunoblotting shows a protein as a band on a membrane.)

Data set [7] deals with complete atrioventricular block (CAVB) model in rats. In words: Telemetry ECG in conscious rats with complete atrioventricular block. It counts as in vivo, rat. Particulars: for heart rate during isoproterenol treatment: conscious. As to the method:
as §1
ECG data was then compared with telemetry data. Before injection of TBX18 mRNA, telemetry biopotential electrodes were sutured to the chest wall and housed in the abdominal cavity of the rat. Telemetry 2-lead ECG signal was recorded wirelessly for conscious, awake rats. The day before injection of TBX18 mRNA, AV block was present in ECG recordings with an average heart rate of 120 bpm, and these values were used as the baseline.

The subject of data set [8] is neonatal rat ventricular myocytes. Put plainly: Spontaneous electrical activity on multi-electrode array. It is filed as cell-based. The following applies: control cardiomyocytes: infrequent and low rate activity. As to the method:
Spontaneous electrical activity from neonatal rat ventricular myocytes were recorded on a non-invasive, multi-electrode array platform. […] The number of electrical activity (Count) was plotted as a function of spontaneous beating rates (in beats per minute, BPM) of the cardiomyocytes.

For “TBX18 mRNA: IVT mRNA for human TBX18 gene, with FLAG tag peptide fused to the C-terminal end of TBX18”, the “effect on ventricular pacing / block” value in data set [1] is given as “created a complete ventricular block”. The biological cardiac pacing result in data set [2] (focal intramyocardial injection into ventricular apex) is reported as “created in vivo biological cardiac pacing”. In addition, in data set [2] (one week after injection, baseline 77 degrees), the “conduction vector (cardiac axis mapping)” value was determined as 49 degrees. Further, the “heart rate with isoproterenol” value in data set [2] (one week after injection, isoproterenol challenge) is 229 bpm. The average heart rate in data set [2] (one week after injection, under anesthesia, baseline 100 bpm) stood at 120 bpm; in data set [2] (three weeks after injection) it was 137 bpm. For the same substance, the “conduction vector of normal QRS complexes” value in data set [2] (three weeks after injection, anterograde) is on record as 48 degrees. In addition, the “conduction vector of transient QRS complexes with isoproterenol” value in data set [2] (three weeks after injection, isoproterenol, retrograde) is recorded as −110 degrees. Also, the “conduction vector of PVCs” value in data set [2] (three weeks after injection, retrograde) is listed as −116 degrees. For the same substance, the “R-R interval as the pig becomes awake in the morning” value in data set [3] (diurnal response) is given as “shorter R-R interval (faster heart rate)”. In data set [3] (pig, in vivo), the “time after delivery within which ventricular pacing was created” value was 7 to 10 days. The “entry of IVT mRNA into cardiomyocytes” value in data set [4] is reported as “efficient entry”. Also, the “cardiomyocytes positive for nuclear TBX18 (FLAG positive)” value in data set [5] (0.5 μg of IVT mRNA+0.2 μl of ViroMer Red) amounted to 4%; in data set [5] (1 μg of IVT mRNA+0.1 μl of ViroMer Red) it was 2%; in data set [5] (1 μg of IVT mRNA+0.2 μl of ViroMer Red), 21%. The “time post-transfection to TBX18 protein expression” value in data set [6] was “less than 6 hours”. The “ventricular pacing by continuous recording of heart rate and heart rate histograms” value in data set [7] (histograms on Days 21 after injection) is reported as “created ventricular pacing”. Further, the “heart rate during isoproterenol treatment” value in data set [7] (one week after delivery, baseline 120 bpm) is listed as 265 bpm; in data set [7] (three weeks after delivery) it was 260 bpm; in data set [7] (two weeks after delivery), 206 bpm. In addition, the spontaneous pacemaker activity entry in data set [8] is reported as “highly active, high rate pacemaker activity”.
